The values that follow come from patent publication US20060281813A1, “Methods of treating hyperproliferative cell disorders” (priority 2003, published 2006).

The subject of series [1] is acute lymphoblastic leukemia. Put plainly: Example 1: patient with relapsed acute lymphoblastic leukemia. Type of series: in vivo, human. The protocol: A person was diagnosed with acute lymphoblastic leukemia. […] 15 received a chemotherapy induction regimen of eight cycles of Hyper-CVAD which consists of the following: Cyclophosphamide 300 mg/mn^2 intravenously (IV) over 3 hours every 12 hours for six doses on days 1 through 3, with mesna at the same total dose as cyclophosphamide but given bycontinuous infusion starting with cyclophosphamide and ending 6 hours after the last dose; vincristine 2 mg IV days 4 and 11; doxorubicin 50 mg/^2 IV day 4; and dexamethasone 40 mg daily on days 1 through 4 and 11 through 14.
In addition, high dose methotrexate-cytarabine (ara-c) was used as follows: MTX (methotrexate) 200 mg/m^2 IV over 2 hours followed by 800 mg/m^2 IV over 24 hours on day 1; citrovorum factor rescue starting 24 hours after completion of MTX infusion at 15 mg every 6 hours x 8, and increased to 50 mg every 6 hours if MTX levels were more 25 than 20 ,upmol/L at the end of the infuision, more than 1 μμmol/L 24 hours later, or more than 0.1 μμmol/L48 hours after the end of MTX infusion, until levels were lower than 0.1μμM; ara-C (cytarabine) […] over 2 hours every 12 hours ×4 on days 2 and 3; and methylprednisolone 50 mg IV twice daily on days 1 through 3.
About a year later, they relapsed with the presence of cancer cells in blood and bone marrow. Thereafter, they underwent a salvage chemotherapy regimen of FLAG (fludarabine, ara-c and G-CSF) with the following doses: fludarabine 30 mg/m^2lday for 5 days; ara-C (cytarabine) 2 g/m^2/day for 5 days (FLAG); and G-CSF (neupogen or granulocyte colony stimulating factor) 400 micrograms/m^2/day. […] They were then given the same salvage regimen plus a daily oral dose of 4-oxo-retinol at 150 mg per day for 28 days. […] This remission lasted for one month before relapse.
The same salvage regimen was repeated with oral administration of4-oxo-retinol (75 mg per day for 18 days) in addition to a daily dose of calcitriol (50 mcg per day concomitant with the administration of 4-oxo-retinol).

Series [2] relates to breast cancer, prostate cancer or leukemia. Put plainly: Example 4: patients with breast cancer, prostate cancer or leukemia. The series is classed as in vivo, human. Conditions: oral 100 mg/square meter with oral IRESSA.
Series [3] concerns advanced head and neck cancer. Put plainly: Example 5: patients with advanced head and neck cancer. Type of series: in vivo, human. Conditions: oral 100 mg/square meter with oral IRESSA or intravenous C-225. The source says:
Current systemic chemotherapy regimens are unable to prolong survival of patients with advanced head and neck cancer.

The subject of series [4] is lung cancer. Put plainly: Example 6: patients with lung cancer. Type of series: in vivo, human. As to conditions: oral 100 mg/square meter with oral IRESSA.
Series [5] deals with lung cancer. Put plainly: Example 7: lung cancer patients with disease progression on IRESSA alone. Type of series: in vivo, human. Conditions: added to IRESSA, oral 100 mg/square meter, optionally calcitriol 0.1-1 mcg per day.
For series [6], the system named is retinoid receptor subtype. Conditions: competition with all-trans RA; cited from earlier work.
The next series relates to Xenopus laevis. Conditions: Xenopus laevis system; cited from earlier work.
Where [7] appears, read: FLAG salvage regimen plus oral 150 mg per day for 28 days.

Molecules are shown by their SMILES.

Regarding `CC(C=CC1=C(C)C(=O)CCC1(C)C)=CC=CC(C)=CCO` [4-oxo-retinol], the response entry in series [1] (FLAG salvage regimen plus oral 75 mg per day for 18 days and calcitriol 50 mcg per day) was “complete remission”. In addition, in series [1] (setting [7]), the “duration of remission before relapse” value is recorded as “one”; the lymph nodes entry is “shrinkage of the lumph nodes to normal size”; the “response (blood and bone marrow)” value is “complete remission”. For the same compound, the “tumor burden versus IRESSA alone” value in series [2] is “reduced tumor burden”. In addition, the “survival rate versus IRESSA or C-225 alone” value in series [3] is “better survival rate”. Besides, in the series with lung cancer [4], the “tumor burden versus IRESSA alone” value is listed as “reduced tumor burden”. The tumor burden entry in the series on lung cancer [5] was “reduced tumor burden”. Moreover, the “displacement of all-trans RA” value in series [6] was “Neither compound efficiently displaced all-trans RA”. Besides, in the series on Xenopus laevis, the “ED50, teratogenicity” value was 0.3 to 0.4 µM.
